These are literature values, as cited in patent US20240401031A1, “Platform Using iPSC-Derived Cardiomyocytes Carrying Gene Variants as Models of Cardiac Disease and Drug-Response” (SRI INTERNATIONAL, priority 2021, published 2024).

SMILES strings stand for the structures.

For this data set the following is noted: source CredibleMeds.
On to `CC1Cc2ccccc2N1NC(=O)c1ccc(Cl)c(S(N)(=O)=O)c1` (stereo not shown) [Indapamide], for which the “Risk (Torsade de Pointes)” value is “(CR)”.

Turning to `[Li]` [Lithium], the “Risk (Torsade de Pointes)” value is listed as “(PR)”.

Consider `O=C1Nc2ccc(Cl)cc2[C@@](C#CC2CC2)(C(F)(F)F)O1` [Efavirenz], for which the “Risk (Torsade de Pointes)” value is listed as “(PR)”.

For the molecule `NC(=O)OCC(COC(N)=O)c1ccccc1` [Felbamate], the “Risk (Torsade de Pointes)” value was “(PR)”.

As to `CNCc1ccc(-c2[nH]c3cc(F)cc4c3c2CCNC4=O)cc1` [Rucaparib], the “Risk (Torsade de Pointes)” value is “(PR)”.

For `CN(CCOc1ccc(NS(C)(=O)=O)cc1)CCc1ccc(NS(C)(=O)=O)cc1` [Dofetilide], the “Risk (Torsade de Pointes)” value is recorded as “(KR)”.

Regarding `COc1cc2c(cc1OC)[C@H]1C[C@@H](OC(=O)[C@@H](N)C(C)C)[C@H](CC(C)C)CN1CC2` [Valbenazine], the “Risk (Torsade de Pointes)” value is given as “(PR)”.

`CC(N)C(O)c1ccccc1` (stereo not shown) [Phenylpropanolamine]: the “Risk (Torsade de Pointes)” value is “(SR)”.

For the molecule `CC(Oc1c(Cl)cccc1Cl)C1=NCCN1` (stereo not shown) [Lofexidine], the “Risk (Torsade de Pointes)” value is listed as “(PR)”.

Turning to `O=c1[nH]cc(F)c(=O)[nH]1` [Fluorouracil], the “Risk (Torsade de Pointes)” value is “(PR)”.

As for `Cc1cc(C(C)(C)C)cc(C)c1CC1=NCCN1` [Xylometazoline], the “Risk (Torsade de Pointes)” value was “(SR)”.

In the case of `Fc1ccc([C@@H]2CCNC[C@H]2COc2ccc3c(c2)OCO3)cc1` [Paroxetine], the “Risk (Torsade de Pointes)” value is recorded as “(CR)”.

With `CC[C@H]1OC(=O)[C@H](C)[C@@H](O[C@H]2C[C@@](C)(OC)[C@@H](O)[C@H](C)O2)[C@H](C)[C@@H](O[C@@H]2O[C@H](C)C[C@H](N(C)C)[C@H]2O)[C@](C)(OC)C[C@@H](C)C(=O)[C@H](C)[C@@H](O)[C@]1(C)O` [Clarithromycin], the “Risk (Torsade de Pointes)” value was “(KR)”.

Consider `O=C1[C@@H]2[C@H]3CC[C@H](C3)[C@@H]2C(=O)N1C[C@@H]1CCCC[C@H]1CN1CCN(c2nsc3ccccc23)CC1` [Lurasidone], for which the “Risk (Torsade de Pointes)” value was “(PR)”.

Regarding `CC(C)(N)Cc1ccccc1` [Phentermine], the “Risk (Torsade de Pointes)” value is on record as “(SR)”.

For `CCN(CC)CCNC(=O)c1cc(S(C)(=O)=O)ccc1OC` [Tiapride], the “Risk (Torsade de Pointes)” value was “(PR)”.

As to `CO[C@@H]1[C@H](N(C)C(=O)c2ccccc2)C[C@H]2O[C@]1(C)n1c3ccccc3c3c4c(c5c6ccccc6n2c5c31)C(=O)NC4` [Midostaurin], the “Risk (Torsade de Pointes)” value is on record as “(PR)”.

`CN(C)CCC[C@@]1(c2ccc(F)cc2)OCc2cc(C#N)ccc21` [Escitalopram]: the “Risk (Torsade de Pointes)” value is reported as “(KR)”.

As to `CNCCCN1c2ccccc2CCc2ccccc21` [Desipramine], the “Risk (Torsade de Pointes)” value was “(PR)”.

For `COc1cc2c(Nc3ccc(Br)cc3F)ncnc2cc1OCC1CCN(C)CC1` [Vandetanib], the “Risk (Torsade de Pointes)” value is listed as “(KR)”.

Turning to `CC(NCCc1ccc(O)cc1)C(O)c1ccc(O)cc1` (stereo not shown) [Ritodrine], the “Risk (Torsade de Pointes)” value is recorded as “(SR)”.

Regarding `CCN1CCCC1CNC(=O)c1cc(S(=O)(=O)CC)ccc1OC` (stereo not shown) [Sultopride], the “Risk (Torsade de Pointes)” value is “(KR)”.

For the molecule `Cc1ccc(Nc2nccc(N(C)c3ccc4c(C)n(C)nc4c3)n2)cc1S(N)(=O)=O` [Pazopanib], the “Risk (Torsade de Pointes)” value is given as “(PR)”.

`CC(C)COc1ccc(CNC(=O)N(Cc2ccc(F)cc2)C2CCN(C)CC2)cc1` [Pimavanserin]: the “Risk (Torsade de Pointes)” value is listed as “(PR)”.

Take `CC(C)NCC(O)c1ccc(O)c(O)c1` (stereo not shown) [Isoproterenol]: the “Risk (Torsade de Pointes)” value is “(SR)”.

Take `COc1ccc(NC(=O)c2ccc(C(=N)N(C)C)cc2)c(C(=O)Nc2ccc(Cl)cn2)c1` [Betrixaban]: the “Risk (Torsade de Pointes)” value is listed as “(PR)”.

As to `CCN1CCCC1CNC(=O)c1cc(S(N)(=O)=O)ccc1OC` (stereo not shown) [Sulpiride], the “Risk (Torsade de Pointes)” value is reported as “(KR)”.

In the case of `C=C[C@H]1C[N@@]2CC[C@H]1C[C@H]2[C@H](O)c1ccnc2ccc(OC)cc12` [Quinine], the “Risk (Torsade de Pointes)” value is reported as “(CR)”.
